Measurements from paper PMC7913291, “Synthesis and Anti-Hepatocarcinoma Effect of Amino Acid Derivatives of Pyxinol and Ocotillol” (Molecules, 2021).
Where two headings read alike, the source gives them in different places.

How the values were obtained:
[1] = test system: HepG2 cells; assay: Cytotoxic activity on HepG2 cells (CCK-8 assay); assay type: cell-based; settings: Homo sapiens, read-out: IC50 over HepG2 cells
Procedure: Human hepatocellular liver carcinoma cell line (HepG2) were obtained from Institute of Biochemistry and Cell Biology, Academy of Science (Shanghai, China) and were authenticated using the STR profiling method. HepG2 cells were cultured in MDEM (Gibco, Waltham, MA, USA) supplemented with 10% fetal bovine serum (FBS) and 1% penicillin-streptomycin bubbled with 5% CO2-enriched air at a temperature of 37 °C (Thermo Scientific, Waltham, MA, USA). The cytotoxic effect of compounds on HepG2 cells was assessed by using CCK-8 method. Briefly, HepG2 cells were cultured in 96-well plates at a density of 5 × 10^3 cells per well for 24 h. […] Three replicates were performed. The relative cell viability was expressed as percentage relative to the untreated cells. The inhibition ratio was calculated. The IC50 values were calculated using Logistic regression from three independent tests.

[2] = test system: H22 transplanted tumor; assay: Antitumor activity in H22 tumor-bearing mice (tumor weight, volume, inhibition rate, tumor histology); assay type: in vivo, Kunming mice
Procedure: Hepatocellular carcinoma cell line (H22) was purchased from the Cell Bank of Type Culture Collection Committee of Chinese Academy of Sciences (Shanghai, China), and cultured in Dulbecco's modified eagle medium supplemented with 10% fetal calf serum and then cultured at 37 °C in 5% CO2. […] (Changchun, China). All the mice, given food and water ad libitum, were raised in temperature and humidity controlled (23 ± 2 °C, 50 ± 10% humidity) environment under a 12 h light/dark cycle. The mice were acclimatized for at least 1 week before use. The animal experiments were performed in accordance with the guidelines for the Care and Use of Laboratory Animals and approved by the ethics committee of School of Pharmaceutical Sciences, Jilin University, China. H22 cells, resuspended in normal saline with final concentration of 5 × 10^6 cells/mL, were injected into the abdominal cavity of mice under aseptic conditions. After 1 week, ascites tumor cells were extracted and dispersed with physiological saline to a concentration of 1 × 10^7 cells/mL.

[3] = test system: TNF-α; assay: Serum TNF-α level in H22 tumor-bearing mice; assay type: in vivo, Kunming mice; settings: mean ± SD
Procedure: (§1) Cyclophosphamide (CTX), used as the positive drug, was purchased from Sigma (St. Lousis, MO, USA. Detecting kits for IL-2, TNF-α, VEGF, AST, ALT, CRE and BUN were purchased from Nanjing Jiancheng Biotechnology Co. (Nanjing, China).
(§2) 24 h after the last administration, the whole blood was collected from the orbit. Serum was obtained from whole blood by centrifugation (3500 rpm, 15 min, 4 °C) and stored at −20 °C. The levels of IL-2, TNF-α, VEGF, AST, ALT, BUN and CRE in serum were determined in accordance with the procedures described in commercial kit instructions.

[4] = test system: IL-2; assay: Serum IL-2 level in H22 tumor-bearing mice; assay type: in vivo, Kunming mice; settings: mean ± SD
Procedure: as §1, §2

[5] = test system: VEGF; assay: Serum VEGF level in H22 tumor-bearing mice; assay type: in vivo, Kunming mice; settings: mean ± SD
Procedure: as §1, §2

[6] = Hepatic and renal function (serum ALT, AST, CRE, BUN) in H22 tumor-bearing mice
Procedure: as §1, §2

[7] = rat, in vivo; cited from earlier work
[8] = cited from earlier work
[9] = Body weight and organ indexes in H22 tumor-bearing mice
Procedure: Before administration every day, the tumor size and body weight were measured. When the tumor was larger than 20 mm in diameter, animals were euthanized according to the IACUC proposals.
(§3) Mice were then killed by cervical dislocation after blood collected. The tumor, liver and kidney were rapidly separated, weighted and dissected for histopathological examination.
The liver and kidney indexes were calculated as follows: organ index (mg/g) =average weight of organ/average body weight.

[10] = Histopathological examination of liver and kidney (H&E staining); settings: H22 tumor-bearing mice; CTX 20 mg/kg
Procedure: as §3
The tissue of tumor, liver and kidney from each mouse was quickly fixed in 10% neutral-buffered formalin for histopathology. The H&E staining of H22 solid tumor, liver and kidney tissue were embedded in paraffin and sectioned into sections with a thickness of 5 µm which were conducted following the manufacturer’s instructions in respective kit. Tumor, liver and kidney tissue sections were observed by light microscopy (Leica DM750, Solms, Germany) and recorded by photography (×400).

[11] = HepG2, CCK-8, 48 h, mean of three experiments ±SD
[12] = 25 mg/kg intragastrically once a day for 14 days
[13] = 50 mg/kg intragastrically once a day for 14 days
[14] = 20 mg/kg intragastrically once a day for 14 days
[15] = serum, H22 tumor-bearing mice, 20 mg/kg

## CC(C)(O)[C@H]1CC[C@@](C)(C2CC[C@]3(C)C2[C@H](O)CC2[C@@]4(C)CC[C@H](OC(=O)C5CCCN5)C(C)(C)C4CC[C@]23C)O1 (stereo partly drawn) [2e, (20S, 24R)-Epoxy-3β-O-(L-prolyl)-dammarane-12β, 25-diol]
[1]; [11]
  IC50: 11.3 ± 0.43 µM
[2]; [12]
  Inhibitory Rate (tumor inhibition rate, TIR): 16.20%
  Tumor Weight: 1.35 ± 0.26 g
[2]; [13]
  Inhibitory Rate (tumor inhibition rate, TIR): 24.76%
  Tumor Weight: 1.21 ± 0.34 g
[2]; 100 mg/kg intragastrically once a day for 14 days
  Tumor Weight: 1.04 ± 0.23 g
[2]; 100 mg/kg intragastrically once a day for 14 days, listed as Compound 2e, 100 mg/kg
  Inhibitory Rate (tumor inhibition rate, TIR): 35.32%
[2]; 100 mg/kg intragastrically once a day for 14 days, listed as compound 2e, 100 mg/kg
  Inhibitory Rate (tumor inhibition rate, TIR): 35.32%
[2]; 50, 100 mg/kg, p < 0.05, p < 0.01
  Effect on tumor volume compared to the model group: significantly reduce
[3]; n = 6, 25 mg/kg
  TNF-α level: 287.01 ± 39.10 pg/mL
[3]; n = 6, 50 mg/kg
  TNF-α level: 321.97 ± 55.57 pg/mL
[3]; n = 6, 100 mg/kg
  TNF-α level: 358.35 ± 45.19 pg/mL
[4]; n = 6, 25 mg/kg
  IL-2 level: 111.13 ± 13.28 pg/mL
[4]; n = 6, 50 mg/kg
  IL-2 level: 136.86 ± 22.66 pg/mL
[4]; n = 6, 100 mg/kg
  IL-2 level: 174.11 ± 28.90 pg/mL
[5]; n = 6, 25 mg/kg
  VEGF level: 158.32 ± 15.97 ^##, * pg/mL
[5]; n = 6, 50 mg/kg
  VEGF level: 127.62 ± 17.46 ^##, ** pg/mL
[5]; n = 6, 100 mg/kg
  VEGF level: 114.67 ± 15.42 pg/mL
[6]; mouse, in vivo, 25 mg/kg
  ALT: 43.62 ± 5.15 ^##, ** IU/L
  AST: 42.51 ± 5.22 ^##, ** IU/L
  CRE: 31.17 ± 9.03 µmol/L
[6]; mouse, in vivo, 50 mg/kg
  ALT: 42.31 ± 5.00 ^##, ** IU/L
  AST: 38.69 ± 6.43 ^##, ** IU/L
  BUN: 11.06 ± 2.16 mmol/L
  CRE: 28.95 ± 9.16 µmol/L
[6]; mouse, in vivo, 100 mg/kg
  ALT: 35.37 ± 3.32 ^##, ** IU/L
  AST: 31.47 ± 4.48 ^#, ** IU/L
  BUN: 10.32 ± 2.77 mmol/L
  CRE: 26.93 ± 10.60 µmol/L

## CC(C)(O)C1CCC(C)(C2CCC3(C)C2C(O)CC2C4(C)CCC(O)C(C)(C)C4C(O)CC23C)O1 (stereo not drawn) [Ocotillol]
[1]; [11]
  IC50: 92.7 ± 3.07 µM
[7]
  absorption into blood: poor
  systemic exposure: low
  t1/2: long
[8]
  plasma protein binding rates: high

## O=P1(N(CCCl)CCCl)NCCCO1 (stereo not drawn) [Cyclophosphamide, reference compound]
[1]; HepG2, 48 h
  IC50: 9.18 ± 0.34 µM
[2]; [14]
  Inhibitory Rate (tumor inhibition rate, TIR): 49.69%
  Tumor Weight: 0.81 ± 0.18 g
[2]; CTX 20 mg/kg, p < 0.01
  Effect on tumor volume compared to the model group: significantly reduce
[9]; [14]
  Body weight D14: 32.76 ± 3.14 g
  Increase of Body Weight: 11.56 ± 3.23 g
  Kidney Index: 13.27 ± 1.96 mg/g
  Liver Index: 51.54 ± 7.69 mg/g
[9]; D1, 20 mg/kg group
  Body weight D1: 21.20 ± 1.71 g
[3]; n = 6, 20 mg/kg
  TNF-α level: 207.47 ± 23.37 ^##, ** pg/mL
[4]; n = 6, 20 mg/kg
  IL-2 level: 110.52 ± 17.54 pg/mL
[5]; n = 6, 20 mg/kg
  VEGF level: 103.43 ± 14.00 pg/mL
[6]; [15]
  ALT: 50.61 ± 3.22 ^##, ** IU/L
  AST: 53.47 ± 5.04 ^##, ** IU/L
  BUN: 14.23 ± 2.38 ^##, * mmol/L
  CRE: 32.86 ± 7.74 µmol/L
[10]
  Liver and kidney cell morphology (H&E): many vacuoles and edema
